Measurements reported in patent publication US11643438B2, “Antimicrobial peptides and methods of use” (priority 2018, dated 2023).
Converted amounts (≈) assume the structure as drawn. Like-named read-outs stand apart in the source and are kept apart here. Each block holds one molecule with its values, some of them ahead of it. *1 amine or outer side, *2 acyl side, *3 side chain or, on linkers, in order; H or OH if unused. Where a SMILES comes first, the peptide text is derived from it. [ ]: non-standard residue; d: D form. X2 = CC[C@H](C)C[C@H](C)C[C@H](C)C[C@H](N[*:1])C(=O)[*:2]; X1 = CC[C@@H](C)[C@@H](O[*:1])C(=O)[*:2]; NMeVal(β-OH) = CN[C@H](C(=O)O)C(C)(C)O; aIle = CC[C@@H](C)[C@H](N)C(=O)O; NMeV = CN[C@H](C(=O)O)C(C)C; Sar = CNCC(=O)O

Tests used:
Candida auris 381 = experiment: Effect of serum on antifungal activity (MIC80); type: cell-based
Protocol: (§1) Given that compound 1 contains a large number of hydrophobic amino acid residues that might promote non-specific protein binding resulting in a loss of in vivo activity, the efficacy of the compound was tested in the presence of blood serum against four fungal pathogens (C. albicans, C. auris, C. neoformans, and A. fumigatus) (Table 3).

Candida albicans SC5314 = experiment: Effect of serum on antifungal activity (MIC80); type: cell-based
Protocol: as §1

[1] = tested on: Aspergillus fumigatus ATCC MYA-3627; experiment: Effect of serum on antifungal activity (MIC80); type: cell-based
Protocol: as §1

[2] = tested on: Cryptococcus neoformans H99; experiment: Effect of serum on antifungal activity (MIC80); type: cell-based
Protocol: as §1

[3] = tested on: Aspergillus fumigatus NRRL5109; experiment: Antifungal MIC80/MFC assay, fungal pathogen panel
[4] = tested on: Curvularia lunata NRRL6409; experiment: Antifungal MIC80/MFC assay, fungal pathogen panel
Candida glabrata 4 = experiment: Antifungal MIC80 assay, clinical yeast isolates
Candida parapsilosis 28 = experiment: Antifungal MIC80 assay, clinical yeast isolates
Candida glabrata 20 = experiment: Antifungal MIC80 assay, clinical yeast isolates
[5] = tested on: Aspergillus flavus NRRL485; experiment: Antifungal MIC80/MFC assay, fungal pathogen panel
Candida parapsilosis 7 = experiment: Antifungal MIC80 assay, clinical yeast isolates
[6] = tested on: Aspergillus niger FGSC A732; experiment: Antifungal MIC80/MFC assay, fungal pathogen panel
Kodameae ohmeri 396 = experiment: Antifungal MIC80 assay, clinical yeast isolates
Candida albicans 21 = experiment: Antifungal MIC80 assay, clinical yeast isolates
Candida glabrata 16 = experiment: Antifungal MIC80 assay, clinical yeast isolates
Candida albicans 10 = experiment: Antifungal MIC80 assay, clinical yeast isolates
Candida auris 390 = experiment: Antifungal MIC80 assay, clinical yeast isolates
[7] = tested on: 44 clinical yeast isolates (Candida, Kodameae, Saccharomyces); experiment: Antifungal MIC80 assay, summary over 44 clinical yeast isolates
[8] = tested on: Candida duobushaemulonii 392; experiment: Antifungal MIC80 assay, clinical yeast isolates
Candida albicans 1 = experiment: Antifungal MIC80 assay, clinical yeast isolates
Candida glabrata 2 = experiment: Antifungal MIC80 assay, clinical yeast isolates
[9] = tested on: Aspergillus fumigatus NRRL6113; experiment: Antifungal MIC80/MFC assay, fungal pathogen panel
Fusarium solani 243G2 = experiment: Antifungal MIC80/MFC assay, fungal pathogen panel
Candida tropicalis 13 = experiment: Antifungal MIC80 assay, clinical yeast isolates
Candida haemulonii 393 = experiment: Antifungal MIC80 assay, clinical yeast isolates
Candida parapsilosis 23 = experiment: Antifungal MIC80 assay, clinical yeast isolates
[10] = tested on: Aspergillus terreus 191A6; experiment: Antifungal MIC80/MFC assay, fungal pathogen panel
Candida kefyr 12 = experiment: Antifungal MIC80 assay, clinical yeast isolates
Candida parapsilosis 15 = experiment: Antifungal MIC80 assay, clinical yeast isolates
Candida albicans 24 = experiment: Antifungal MIC80 assay, clinical yeast isolates
Candida krusei 25 = experiment: Antifungal MIC80 assay, clinical yeast isolates
[11] = tested on: Hamigera insecticola NRRL35442; experiment: Antifungal MIC80/MFC assay, fungal pathogen panel
Candida auris 384 = experiment: Antifungal MIC80 assay, clinical yeast isolates
Candida albicans 30 = experiment: Antifungal MIC80 assay, clinical yeast isolates
[12] = 0% serum (v/v) in growth medium
[13] = 5% serum (v/v) in growth medium
[14] = 10% serum (v/v) in growth medium

MIC80 (Candida auris 381; [12]): 2.5 µM (≈ 2.31 µg/mL)
MIC80 (Candida auris 381; [13]): <0.15 µM
MIC80 (Candida auris 381; [14]): 0.3 µM (≈ 0.277 µg/mL)
MIC80 (Candida albicans SC5314; Candida albicans SC5314, 0% serum (v/v) in growth medium): 0.6 µM (≈ 0.554 µg/mL)
MIC80 (Candida albicans SC5314; Candida albicans SC5314, 5% serum (v/v) in growth medium): <0.15 µM
MIC80 (Candida albicans SC5314; Candida albicans SC5314, 10% serum (v/v) in growth medium): <0.15 µM
MIC80 [1, 12]: 2.5 µM (≈ 2.31 µg/mL)
MIC80 [1, 13]: <0.07 µM
MIC80 [1, 14]: 0.15 µM (≈ 0.139 µg/mL)
MIC80 ([2]; Cryptococcus neoformans H99, 0% serum (v/v) in growth medium): 1.25 µM (≈ 1.16 µg/mL)
MIC80 ([2]; Cryptococcus neoformans H99, 5% serum (v/v) in growth medium): <0.15 µM
MIC80 ([2]; Cryptococcus neoformans H99, 10% serum (v/v) in growth medium): <0.15 µM
MIC80 [3]: 2.5 µM (≈ 2.31 µg/mL)
MIC80 [4]: 0.3 µM (≈ 0.277 µg/mL)
MIC80 (Candida glabrata 4; Candida glabrata 4): 1.25 µM (≈ 1.16 µg/mL)
MIC80 (Candida parapsilosis 28; Candida parapsilosis 28): 1.25 µM (≈ 1.16 µg/mL)
MIC80 (Candida glabrata 20; Candida glabrata 20): 0.6 µM (≈ 0.554 µg/mL)
MIC80 [5]: 5 µM (≈ 4.62 µg/mL)
MIC80 (Candida parapsilosis 7; Candida parapsilosis 7): 2.5 µM (≈ 2.31 µg/mL)
MIC80 ([6]; Aspergillus niger FGSC A732): 0.6 µM (≈ 0.554 µg/mL)
MIC80 (Kodameae ohmeri 396; Kodameae ohmeri 396, multidrug-resistant): 1.25 µM (≈ 1.16 µg/mL)
MIC80 (Candida albicans 21): 0.6 µM (≈ 0.554 µg/mL)
MIC80 (Candida glabrata 16; Candida glabrata 16): 0.15 µM (≈ 0.139 µg/mL)
MIC80 (Candida albicans 10): 0.6 µM (≈ 0.554 µg/mL)
MIC80 (Candida auris 390; Candida auris 390, multidrug-resistant): 2.5 µM (≈ 2.31 µg/mL)
maximum MIC80 value ([7]; 44 clinical yeast isolates): 2.5 µM
median MIC80 ([7]; 44 clinical yeast isolates): 1.25 µM
minimum MIC80 value ([7]; 44 clinical yeast isolates): 0.15 µM
MIC80 ([8]; Candida duobushaemulonii 392, multidrug-resistant): 5 µM (≈ 4.62 µg/mL)
MIC80 (Candida albicans 1): 0.6 µM (≈ 0.554 µg/mL)
MIC80 (Candida glabrata 2; Candida glabrata 2): 0.3 µM (≈ 0.277 µg/mL)
MIC80 [9]: 2.5 µM (≈ 2.31 µg/mL)
MIC80 (Fusarium solani 243G2): 1.25 µM (≈ 1.16 µg/mL)
MIC80 (Candida tropicalis 13): 0.15 µM (≈ 0.139 µg/mL)
MIC80 (Candida haemulonii 393; Candida haemulonii 393, multidrug-resistant): 5 µM (≈ 4.62 µg/mL)
MIC80 (Candida parapsilosis 23; Candida parapsilosis 23): 1.25 µM (≈ 1.16 µg/mL)
MIC80 [10]: 2.5 µM (≈ 2.31 µg/mL)
MIC80 (Candida kefyr 12; Candida kefyr 12): 0.3 µM (≈ 0.277 µg/mL)
MIC80 (Candida parapsilosis 15; Candida parapsilosis 15): 2.5 µM (≈ 2.31 µg/mL)
MIC80 (Candida albicans 24): 1.25 µM (≈ 1.16 µg/mL)
MIC80 (Candida krusei 25; Candida krusei 25): 1.25 µM (≈ 1.16 µg/mL)
MIC80 (Candida auris 384; Candida auris 384, multidrug-resistant): 2.5 µM (≈ 2.31 µg/mL)
MIC80 (Candida albicans 30): 2.5 µM (≈ 2.31 µg/mL)
Compound: C[C@@H]1[C@H](O)[C@@H](C)/C=C/C=C/C=C/C=C/C=C/C=C/C=C/[C@H](O[C@@H]2O[C@H](C)[C@@H](O)[C@H](N)[C@@H]2O)C[C@@H]2O[C@](O)(C[C@@H](O)C[C@@H](O)[C@H](O)CC[C@@H](O)C[C@@H](O)CC(=O)O[C@H]1C)C[C@H](O)[C@H]2C(=O)O [AMB, amphotericin B]
MFC [3]: 5 µM (≈ 4.62 µg/mL)
MFC [4]: 2.5 µM (≈ 2.31 µg/mL)
MFC [5]: 10 µM (≈ 9.24 µg/mL)
MFC ([6]; Aspergillus niger FGSC A732): 2.5 µM (≈ 2.31 µg/mL)
MFC [9]: 10 µM (≈ 9.24 µg/mL)
MFC (Fusarium solani 243G2): 1.25 µM (≈ 1.16 µg/mL)
MFC [10]: 10 µM (≈ 9.24 µg/mL)
MFC [11]: 10 µM (≈ 9.24 µg/mL)
MIC80 [11]: 2.5 µM (≈ 2.31 µg/mL)

Compound: CC[C@H](C)C[C@H](C)C[C@H](C)C[C@@H]1NC(=O)[C@H](C(C)C)N(C)C(=O)[C@@H]([C@H](C)CC)OC(=O)[C@H](C(C)(C)O)N(C)C(=O)[C@H](CC(C)C)NC(=O)[C@H](C(C)C)N(C)C(=O)[C@H]([C@H](C)CC)NC(=O)[C@@H]2CCCN2C(=O)CN(C)C1=O [Compound 1, persephacin] (cyclo(L[NMeVal(β-OH)][X1][NMeV][X2][Sar]P[aIle][NMeV]))
MIC80 (Candida auris 381; [13]): 1.25 µM (≈ 1.34 µg/mL)
MIC80 (Candida auris 381; [14]): 1.25 µM (≈ 1.34 µg/mL)
MIC80 (Candida auris 381; Candidozyma auris, 0% serum (v/v) in growth medium): 1.25 µM (≈ 1.34 µg/mL)
MIC80 (Candida albicans SC5314; Candida albicans, SC5314, Candida albicans SC5314, 0% serum (v/v) in growth medium): 0.6 µM (≈ 0.645 µg/mL)
MIC80 (Candida albicans SC5314; Candida albicans, SC5314, Candida albicans SC5314, 5% serum (v/v) in growth medium): 0.15 µM (≈ 0.161 µg/mL)
MIC80 (Candida albicans SC5314; Candida albicans, SC5314, Candida albicans SC5314, 10% serum (v/v) in growth medium): 0.3 µM (≈ 0.323 µg/mL)
MIC80 [1, 12]: 2.5 µM (≈ 2.69 µg/mL)
MIC80 [1, 13]: 2.5 µM (≈ 2.69 µg/mL)
MIC80 [1, 14]: 2.5 µM (≈ 2.69 µg/mL)
MIC80 ([2]; Cryptococcus neoformans, H99, Cryptococcus neoformans H99, 0% serum (v/v) in growth medium): 0.6 µM (≈ 0.645 µg/mL)
MIC80 ([2]; Cryptococcus neoformans, H99, Cryptococcus neoformans H99, 5% serum (v/v) in growth medium): < 0.15 µM
MIC80 ([2]; Cryptococcus neoformans, H99, Cryptococcus neoformans H99, 10% serum (v/v) in growth medium): < 0.15 µM
MFC [3]: 5 µM (≈ 5.38 µg/mL)
MIC80 [3]: 2.5 µM (≈ 2.69 µg/mL)
MFC [4]: 0.6 µM (≈ 0.645 µg/mL)
MIC80 [4]: 0.3 µM (≈ 0.323 µg/mL)
MIC80 (Candida glabrata 4; Nakaseomyces glabratus, 4): 1.25 µM (≈ 1.34 µg/mL)
MIC80 (Candida parapsilosis 28; Lodderomyces parapsilosis, 28): 2.5 µM (≈ 2.69 µg/mL)
MIC80 (Candida glabrata 20; Nakaseomyces glabratus, 20): 0.3 µM (≈ 0.323 µg/mL)
MFC [5]: > 10 µM
MIC80 [5]: 1.25 µM (≈ 1.34 µg/mL)
MIC80 (Candida parapsilosis 7; Lodderomyces parapsilosis, 7): 2.5 µM (≈ 2.69 µg/mL)
MFC ([6]; Aspergillus niger, FGSCA732): > 10 µM
MIC80 ([6]; Aspergillus niger, FGSCA732): 1.25 µM (≈ 1.34 µg/mL)
MIC80 (Kodameae ohmeri 396; 396): 2.5 µM (≈ 2.69 µg/mL)
MIC80 (Candida albicans 21): 1.25 µM (≈ 1.34 µg/mL)
MIC80 (Candida glabrata 16; Nakaseomyces glabratus, 16): 0.3 µM (≈ 0.323 µg/mL)
MIC80 (Candida albicans 10): 2.5 µM (≈ 2.69 µg/mL)
MIC80 (Candida auris 390; Candidozyma auris, 390): 2.5 µM (≈ 2.69 µg/mL)
MIC80 ([7]; read-out: maximum MIC80 value): 5 µM (≈ 5.38 µg/mL)
MIC80 ([7]; read-out: median MIC80): 2.5 µM (≈ 2.69 µg/mL)
MIC80 ([7]; read-out: minimum MIC80 value): 0.15 µM (≈ 0.161 µg/mL)
MIC80 ([8]; Candidozyma duobushaemuli, 392): 2.5 µM (≈ 2.69 µg/mL)
MIC80 (Candida albicans 1): 2.5 µM (≈ 2.69 µg/mL)
MIC80 (Candida glabrata 2; Nakaseomyces glabratus, 2): 0.15 µM (≈ 0.161 µg/mL)
MFC [9]: 5 µM (≈ 5.38 µg/mL)
MIC80 [9]: 2.5 µM (≈ 2.69 µg/mL)
MFC (Fusarium solani 243G2): 2.5 µM (≈ 2.69 µg/mL)
MIC80 (Fusarium solani 243G2): 1.25 µM (≈ 1.34 µg/mL)
MIC80 (Candida tropicalis 13): 0.625 µM (≈ 0.672 µg/mL)
MIC80 (Candida haemulonii 393; Candidozyma haemuli, 393): 0.3 µM (≈ 0.323 µg/mL)
MIC80 (Candida parapsilosis 23; Lodderomyces parapsilosis, 23): 2.5 µM (≈ 2.69 µg/mL)
MFC [10]: > 10 µM
MIC80 [10]: 2.5 µM (≈ 2.69 µg/mL)
MIC80 (Candida kefyr 12; Kluyveromyces marxianus, 12): 1.25 µM (≈ 1.34 µg/mL)
MIC80 (Candida parapsilosis 15; Lodderomyces parapsilosis, 15): 2.5 µM (≈ 2.69 µg/mL)
MIC80 (Candida albicans 24): 0.6 µM (≈ 0.645 µg/mL)
MIC80 (Candida krusei 25; Pichia kudriavzevii, 25): 1.25 µM (≈ 1.34 µg/mL)
MFC [11]: 5 µM (≈ 5.38 µg/mL)
MIC80 [11]: 0.6 µM (≈ 0.645 µg/mL)
MIC80 (Candida auris 384; Candidozyma auris, 384): 2.5 µM (≈ 2.69 µg/mL)
MIC80 (Candida albicans 30): 5 µM (≈ 5.38 µg/mL)
